We go through 3 compounds from patent publication US4275057A (The United States of America as represented by the …, priority 1980, dated 1981).

Assay [1] concerns the target T1, Mouse kidney cytidine deaminase (Mus musculus, UniProt P56389).
T1 construct: isolated and partially purified from mouse kidney acetone powder; tissue Sigma Chemical Co; host or cells: mouse kidney (acetone powder, buffer extract, ammonium sulfate fractionation)
Kind of assay: Cytidine deaminase inhibition, mouse kidney enzyme. The class given is biochemical.

Assay [2] has as its target T2, Cytidine deaminase from human liver (Homo sapiens, UniProt P32320).
T2 construct: Cytidine deaminase from human liver was isolated; from tissue; host or cells: human liver
Kind of assay: Cytidine deaminase inhibition, human liver enzyme. The assay is classed as biochemical.

In the next assay the test system is adenosine deaminase. Conditions: qualitative statement; cited from earlier work.

The Ki is the equilibrium dissociation constant of an inhibitor or competing ligand from its target.

T1 sequence (P56389 whole entry): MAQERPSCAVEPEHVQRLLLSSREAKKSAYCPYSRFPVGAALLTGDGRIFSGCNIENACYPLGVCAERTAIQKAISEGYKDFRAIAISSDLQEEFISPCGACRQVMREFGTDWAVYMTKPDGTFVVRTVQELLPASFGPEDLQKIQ
T2 sequence (P32320 whole entry): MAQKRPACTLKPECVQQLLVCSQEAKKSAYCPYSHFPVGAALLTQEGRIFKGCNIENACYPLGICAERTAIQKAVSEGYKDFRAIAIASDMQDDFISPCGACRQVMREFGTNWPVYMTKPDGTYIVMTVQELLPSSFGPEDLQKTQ

Turning to `O=C1NCCCCN1C1C[C@H](O)[C@@H](CO)O1` (stereo partly drawn) [Compound 3d, 1-(2-deoxy-D-erythro-pentofuranosyl)-perhydro-1,3-diazepin-2-one], the inhibition constant Ki in assay [1] was 0.2 µM. Turning to `O=C1CCNC(=O)N([C@@H]2O[C@H](CO)[C@@H](O)[C@H]2O)C1` [Compound 8b, 3-(β-D-Ribofuranosyl)-5-keto-perhydro-1,3-diazepin-2-one], the inhibition constant Ki in assay [1] and in assay [2] was 10 µM in each case. For `OC[C@H]1O[C@@H](n2cnc3c2N=CNC[C@H]3O)C[C@@H]1O` [2'-deoxycoformycin], in the assay on adenosine deaminase, the “inhibition of adenosine deaminase (in words)” value is recorded as “very potent adenosine deaminase inhibitor”.
